In patent US12454675B2, “Method of increasing protein yield in mammalian cells in serum-free culture medium” (AGENCY FOR SCIENCE, TECHNOLOGY AND RESEARCH, priority 2016, dated 2025):

How the values were obtained:
CHO cell culture = details: 3.6 g/l of monosaccharides; cited from earlier work
CHO-K1 cells = assay: Adaptation of CHO-K1 cells into HyQ PF-CHO media with different disaccharides; type: cell-based, Chinese Hamster; details: 3.6 g/l sugar, seeding 0.3×10^6 cells/ml, 74 days
Experimental: Viable cell density and culture viability were determined by Trypan blue dye exclusion method using Vi-Cell XR Cell Viability Analyzer (Beckman Coulter, Brea, CA) according to manufacturer's instructions. For biochemical and other cell culture parameter analyses, 1 ml of culture sample was centrifuged at 8000 g for 10 minutes to obtain clarified supernatant. […] At each passage during the adaptation process, viable cell density and culture viability before passage and after inoculation into fresh media were determined. […] Osmolality of these culture media were determined to be between 308 and 324 mOsm/kg, well within the range for optimal mammalian cell culture. The viable cell densities and culture viabilities of these cultures at the beginning and end of each passage over a period of 74 days are shown in FIG. 1. […] However, culture viabilities and viable cell densities of the maltose culture started to pick up on Day 14. Proliferation of the cells in maltose culture then maintained over the period of the time studied, while those in the other disaccharides were terminated on Day 31 due to the lack of cell growth and depressed culture viabilities.

CHO-DG44 cells = assay: Disaccharides to support growth of CHO-DG44 cells in HyQ PF-CHO; type: cell-based, Chinese Hamster; details: 10 g/l sugar, 22 days
From the text: (§1) In (A) CHO-K1 cells were cultivated in a serum-free protein-free cell culture medium, HyQ PF-CHO, with 3.6 g/l of different sugars (maltose, sucrose, lactose, trehalose or glucose) as carbohydrate source. The viable cell densities (lined markers) and culture viabilities (marker only) of these cultures at the beginning and end of each passage over a period of 74 days were plotted. Cultures with sucrose, lactose or trehalose were terminated on Day 31 due to the decreased culture viabilities and reduced viable cell densities. The experiment was repeated with a seeding cell density of 1.0×10^6 cells/ml to obtain similar results. In (B) CHO-DG44 cells were cultivated with a seeding cell density of 1.0×10^6 cells/ml in a serum-free protein-free cell culture medium, HyQ PF-CHO, with 10 g/l of different sugars (maltose, sucrose, lactose, trehalose or glucose) as carbohydrate source. The viable cell densities (lined markers) and cell viabilities (marker only) of these cultures at the beginning and end of each passage over a period of 22 days were plotted. In (C) HEK293 cells were cultivated with a seeding cell density of 1.0×10^6 cells/ml in a protein-free chemically defined cell culture medium, PFCDM, with 10 g/l of different sugars (maltose, sucrose, lactose, trehalose or glucose) as carbohydrate source. The viable cell densities (lined markers) and cell viabilities (marker only) of these cultures at the beginning and end of each passage over a period of 22 days were plotted. Cultures with sucrose, lactose or trehalose were terminated on Day 14 due to the decreased culture viabilities and reduced viable cell densities.
To determine whether the same approach can be applied on other CHO cell lines, the use of disaccharides to support the growth of CHO-DG44 cells was evaluated. These cells were cultivated with 10 g/l of maltose, sucrose, lactose, trehalose or glucose as energy source in a serum-free protein-free cell culture medium HyQ PF-CHO. The viable cell densities and culture viabilities of these cultures at the beginning and end of each passage over a period of 22 days are shown in FIG. 1B.

HEK293 cells = assay: Disaccharides to support growth of HEK293 cells in PFCDM; type: cell-based; details: 10 g/l sugar, seeding 1.0×10^6 cells/ml, 22 days
From the text: as §1

SMILES	specific consumption rate (CHO cell culture) [ng/cell/day]	proliferation in serum-free protein-free culture medium with the sugar as sugar source (CHO-K1 cells)	proliferation in serum-free protein-free culture medium with the sugar as sugar source (CHO-DG44 cells)	proliferation in serum-free culture medium with the sugar as sugar source (HEK293 cells)
O=C(CO)[C@@H](O)[C@H](O)[C@H](O)CO [fructose]	0.21	–	–	–
O=C[C@H](O)[C@@H](O)[C@@H](O)[C@H](O)CO [galactose]	0.21	–	–	–
OC[C@H]1O[C@@H](O[C@H]2[C@H](O)[C@@H](O)C(O)O[C@@H]2CO)[C@H](O)[C@@H](O)[C@H]1O (some centres unmarked) [lactose]	–	not	not	not
OC[C@H]1O[C@@](CO)(O[C@H]2O[C@H](CO)[C@@H](O)[C@H](O)[C@H]2O)[C@@H](O)[C@@H]1O [sucrose]	–	not	not	not
OC[C@H]1O[C@H](O[C@H]2O[C@H](CO)[C@@H](O)[C@H](O)[C@H]2O)[C@H](O)[C@@H](O)[C@@H]1O [trehalose]	–	not	not	not
